# Data published in PMC9230548, “Synthesis and Biological Evaluation of Novel Synthetic Indolone Derivatives as Anti-Tumor Agents Targeting p53-MDM2 and p53-MDMX” (Molecules, 2022).
# Where two headings read alike, the source gives them in different places.
# Tests used:
# [1] = molecular target: T1, MDMX (Homo sapiens, UniProt O15151); experiment: fluorescence polarization assay, MDMX binding
# T1 sequence (O15151 1-490): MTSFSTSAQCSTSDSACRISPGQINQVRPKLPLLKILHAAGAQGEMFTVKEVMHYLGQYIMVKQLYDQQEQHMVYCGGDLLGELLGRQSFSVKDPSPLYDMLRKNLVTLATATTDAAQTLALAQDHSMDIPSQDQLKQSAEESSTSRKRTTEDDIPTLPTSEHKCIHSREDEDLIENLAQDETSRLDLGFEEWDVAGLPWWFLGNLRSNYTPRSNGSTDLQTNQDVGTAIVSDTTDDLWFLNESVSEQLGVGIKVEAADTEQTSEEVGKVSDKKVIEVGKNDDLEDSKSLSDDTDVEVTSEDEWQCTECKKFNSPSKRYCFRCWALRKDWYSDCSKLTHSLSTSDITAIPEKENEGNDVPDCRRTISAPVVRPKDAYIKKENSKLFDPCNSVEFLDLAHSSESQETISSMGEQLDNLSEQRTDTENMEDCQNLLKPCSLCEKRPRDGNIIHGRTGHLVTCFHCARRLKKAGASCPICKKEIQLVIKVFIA
# Method: (§1) The MDM2 and MDMX binding evaluation for the target compounds was carried out using the fluorescence polarization assay.
# (§2) Dose-dependent MDM2 and MDMX binding evaluations were carried out using the fluorescence polarization assay.
# (§3) A total of 30 nM preincubated (30 min) MDM2 (or MDMX) and 10 nM PMDM-F peptide in reaction buffer (100 μL, potassium phosphate, 100 mM; bovine gamma globulin, 100 mg/mL; sodium azide, 0.02%) were added into a 96-well plate containing the tested compounds at pH 7.5.
# [2] = molecular target: MDM2 (Homo sapiens, UniProt Q00987); experiment: fluorescence polarization assay, MDM2 binding
# Sequence of MDM2 (Q00987 whole entry): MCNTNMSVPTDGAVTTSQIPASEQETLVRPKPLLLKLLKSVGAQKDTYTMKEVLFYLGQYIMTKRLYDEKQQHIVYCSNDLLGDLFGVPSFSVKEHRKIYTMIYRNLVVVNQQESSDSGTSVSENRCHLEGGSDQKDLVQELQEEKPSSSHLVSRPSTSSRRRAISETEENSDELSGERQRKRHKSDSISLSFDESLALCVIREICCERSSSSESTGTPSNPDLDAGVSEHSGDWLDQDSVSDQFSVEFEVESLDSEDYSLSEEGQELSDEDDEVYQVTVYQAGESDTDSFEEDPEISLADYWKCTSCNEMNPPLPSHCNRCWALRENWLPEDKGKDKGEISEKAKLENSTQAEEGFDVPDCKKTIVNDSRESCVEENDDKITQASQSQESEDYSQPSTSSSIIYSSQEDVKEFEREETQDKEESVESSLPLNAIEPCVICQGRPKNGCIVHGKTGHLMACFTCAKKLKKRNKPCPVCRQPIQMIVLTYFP
# Method: as §1, §2, §3
# [3] = read-out: Ki (μM) ± SD MDMX, fluorescence polarization, PMDM-F peptide, pH 7.5
# [4] = read-out: Ki (μM) ± SD MDM2, fluorescence polarization, PMDM-F peptide, pH 7.5
SMILES,Ki [1],melting point,Ki [2],"Ki [1, 3]","Ki [2, 4]"
"Cc1ccccc1S(=O)(=O)N1C(=O)/C(=C/c2ccccc2Cl)c2ccccc21 [Compound A2, (E)-3-(2-chlorobenzylidene)-1-(o-tolylsulfonyl)indolin-2-one]",> 50 µM,,7.23 ± 1.03 µM,,
"Cc1cccc(S(=O)(=O)N2C(=O)/C(=C/c3ccccc3Cl)c3ccccc32)c1 [Compound A3, (E)-3-(2-chlorobenzylidene)-1-(m-tolylsulfonyl)indolin-2-one]",> 50 µM,,5.58 ± 0.99 µM,,
"O=C1/C(=C/c2ccccc2Cl)c2ccccc2N1S(=O)(=O)c1ccc(Cl)cc1 [Compound A7, (E)-3-(2-chlorobenzylidene)-1-((4-chlorophenyl)sulfonyl)indolin-2-one]",20.4 ± 2.62 µM,172.4 to 173.1 °C,1.53 ± 0.19 µM,,
"Cc1ccccc1S(=O)(=O)N1C(=O)/C(=C/c2cccc(Cl)c2)c2ccccc21 [Compound A9, (E)-3-(3-chlorobenzylidene)-1-(o-tolylsulfonyl)indolin-2-one]",,140.9 to 143.2 °C,,> 50 µM,6.95 ± 0.97 µM
"Cc1cccc(S(=O)(=O)N2C(=O)/C(=C/c3cccc(Cl)c3)c3ccccc32)c1 [Compound A10, (E)-3-(3-chlorobenzylidene)-1-(m-tolylsulfonyl)indolin-2-one]",,147.4 to 149.2 °C,,> 50 µM,5.36 ± 1.06 µM
"Cc1ccc(S(=O)(=O)N2C(=O)/C(=C/c3cccc(Cl)c3)c3ccccc32)cc1 [Compound A11, (E)-3-(3-chlorobenzylidene)-1-tosylindolin-2-one]",> 50 µM,136.3 to 138.1 °C,5.19 ± 1.25 µM,,
"O=C1/C(=C/c2cccc(Cl)c2)c2ccccc2N1S(=O)(=O)c1cccc([N+](=O)[O-])c1 [Compound A22, (E)-3-(3-chlorobenzylidene)-1-((3-nitrophenyl)sulfonyl)indolin-2-one]",13.6 ± 1.47 µM,195.3 to 197 °C,1.39 ± 0.21 µM,,
"COc1ccc(S(=O)(=O)N2C(=O)/C(=C/c3cccc(Cl)c3)c3ccccc32)cc1 [Compound A23, (E)-3-(3-chlorobenzylidene)-1-((4-methoxyphenyl)sulfonyl)indolin-2-one]",42.2 ± 4.73 µM,175.1 to 176.7 °C,3.77 ± 0.45 µM,,
"Cc1cccc(S(=O)(=O)N2C(=O)/C(=C/c3ccc(Cl)cc3)c3ccccc32)c1 [Compound A25, (E)-3-(4-chlorobenzylidene)-1-(m-tolylsulfonyl)indolin-2-one]",,,,> 50 µM,4.93 ± 0.47 µM
"O=C1/C(=C/c2ccc(Cl)cc2)c2ccccc2N1S(=O)(=O)c1ccccc1 [Compound A28, (E)-3-(4-chlorobenzylidene)-1-(phenylsulfonyl)indolin-2-one]",37.4 ± 3.57 µM,,2.18 ± 0.29 µM,,

# Other lines, results leading:
Ki [1],melting point,Ki [2],"Ki [1, 3]","Ki [2, 4]",SMILES
> 50 µM,138.2 to 139.9 °C,4.39 ± 0.82 µM,,,"O=C1/C(=C/c2ccccc2Cl)c2ccccc2N1S(=O)(=O)c1ccccc1 [Compound A1, (E)-3-(2-chlorobenzylidene)-1-(phenylsulfonyl)indolin-2-one]"
> 50 µM,148.9 to 150.5 °C,10.2 ± 1.45 µM,,,"Cc1ccc(S(=O)(=O)N2C(=O)/C(=C/c3ccccc3Cl)c3ccccc32)cc1 [Compound A4, (E)-3-(2-chlorobenzylidene)-1-tosylindolin-2-one]"
42.1 ± 6.35 µM,157.2 to 158.1 °C,3.43 ± 0.57 µM,,,"O=C1/C(=C/c2ccccc2Cl)c2ccccc2N1S(=O)(=O)c1ccccc1Cl [Compound A5, (E)-3-(2-chlorobenzylidene)-1-((2-chlorophenyl)sulfonyl)indolin-2-one]"
10.3 ± 1.45 µM,115.1 to 117.3 °C,1.47 ± 0.15 µM,,,"O=C1/C(=C/c2cccc(Cl)c2)c2ccccc2N1S(=O)(=O)c1ccccc1 [Compound A8, (E)-3-(3-chlorobenzylidene)-1-(phenylsulfonyl)indolin-2-one]"
,155.2 to 157.1 °C,,34.7 ± 4.02 µM,3.17 ± 0.37 µM,"Cc1ccccc1S(=O)(=O)N1C(=O)/C(=C/c2ccc(Cl)cc2)c2ccccc21 [Compound A24, (E)-3-(4-chlorobenzylidene)-1-(o-tolylsulfonyl)indolin-2-one]"
